Laboratory results published in ChEMBL document CHEMBL1145510, “SCO-1, a novel plasmid-mediated class A beta-lactamase with carbenicillinase characteristics from Escherichia coli” (Antimicrob Agents Chemother, 2007).
Converted amounts (≈) assume the structure as drawn.

Experiments:
[1] = Inhibition of Escherichia coli K12 CARB1
[2] = molecular target: Beta-lactamase TEM (Escherichia coli) (UniProt P62593); experiment: Inhibition of Escherichia coli TEM1
[3] = molecular target: T1, Beta-lactamase SCO-1 (Escherichia coli) (UniProt A1E3K9); experiment: Activity of Escherichia coli beta-lactamase SCO1 relative to penicillin G
T1 sequence (whole entry): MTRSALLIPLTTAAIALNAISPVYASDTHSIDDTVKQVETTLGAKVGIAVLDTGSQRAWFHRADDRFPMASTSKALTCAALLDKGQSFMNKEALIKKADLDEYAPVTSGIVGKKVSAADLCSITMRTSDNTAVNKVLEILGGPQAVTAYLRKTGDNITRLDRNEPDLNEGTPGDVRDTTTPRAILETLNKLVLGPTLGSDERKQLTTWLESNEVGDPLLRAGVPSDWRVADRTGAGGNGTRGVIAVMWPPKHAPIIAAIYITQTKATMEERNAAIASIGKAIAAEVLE

Escherichia coli [4] = experiment: Antibacterial activity against Escherichia coli K12 carrying pR3521 encoding SCO1 by agar dilution technique; format: functional
Escherichia coli [5] = experiment: Antibacterial activity against Escherichia coli DH5-alpha by agar dilution technique; format: functional; conditions: DH5alpha
Escherichia coli [6] = experiment: Antibacterial activity against Escherichia coli DH5-alpha carrying pSCO1 encoding SCO1 by agar dilution technique; format: functional; conditions: DH5alpha
Escherichia coli [7] = experiment: Antibacterial activity against Escherichia coli 3521r carrying pR352 encoding SCO1 by agar dilution technique; format: functional
Escherichia coli [8] = experiment: Activity of Escherichia coli K12 beta-lactamase CARB1 relative to penicillin G
[9] = molecular target: Beta-lactamase TEM (Escherichia coli) (UniProt P62593); experiment: Activity of Escherichia coli K12 beta-lactamase TEM1 relative to penicillin G

Chain of Beta-lactamase TEM (Escherichia coli) (P62593 whole entry): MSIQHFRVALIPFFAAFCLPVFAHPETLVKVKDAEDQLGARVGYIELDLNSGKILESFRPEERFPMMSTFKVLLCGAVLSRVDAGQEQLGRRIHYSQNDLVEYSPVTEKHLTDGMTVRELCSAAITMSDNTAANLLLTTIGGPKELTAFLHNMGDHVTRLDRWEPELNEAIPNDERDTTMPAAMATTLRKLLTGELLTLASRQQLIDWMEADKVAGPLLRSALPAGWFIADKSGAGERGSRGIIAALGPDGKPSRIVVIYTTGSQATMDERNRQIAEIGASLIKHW

Row | Structure (SMILES) | IC50 [1] [nM] | Activity [2] [µM] | Activity [3] | MIC (Escherichia coli [4]) [µg/mL] | MIC (Escherichia coli [5]) [µg/mL] | MIC (Escherichia coli [6]) [µg/mL] | MIC (Escherichia coli [7]) [µg/mL] | Activity (Escherichia coli [8]) | Activity [9]
1 | O=C(O)[C@H]1/C(=C/CO)O[C@@H]2CC(=O)N21 [CLAVULANIC ACID] | 100 | 3 |  |  |  |  |  |  | 
2 | CC1(C)S[C@@H]2[C@H](NC(=O)[C@H](N)c3ccccc3)C(=O)N2[C@H]1C(=O)O |  |  | 84 |  |  |  |  |  | 
3 | CO/N=C(\C(=O)N[C@@H]1C(=O)N2C(C(=O)[O-])=C(C[N+]3(C)CCCC3)CS[C@H]12)c1csc(N)n1 |  |  |  | 0.25 (≈ 0.52 µM) | ≤ 0.12 | ≤ 0.12 |  |  | 
4 | C[C@H]1[C@H](NC(=O)/C(=N\OC(C)(C)C(=O)O)c2csc(N)n2)C(=O)N1S(=O)(=O)O [AZTREONAM] |  |  |  | 1 (≈ 2.3 µM) | ≤ 0.12 | ≤ 0.12 | 1 (≈ 2.3 µM) |  | 
5 | Cc1onc(-c2ccccc2)c1C(=O)N[C@@H]1C(=O)N2[C@@H]1SC(C)(C)[C@@H]2C(=O)O |  |  | 4 |  |  |  |  | 12 | 
6 | CC1(C)S[C@@H]2[C@H](NC(=O)[C@H](C(=O)O)c3ccsc3)C(=O)N2[C@H]1C(=O)O [TICARCILLIN] |  |  |  | ≥ 256 | 2 (≈ 5.2 µM) | ≥ 256 | ≥ 256 |  | 
7 | CC1(C)S[C@@H]2[C@H](NC(=O)[C@H](N)c3ccc(O)cc3)C(=O)N2[C@H]1C(=O)O [AMOXICILLIN] |  |  |  | ≥ 256 | 4 (≈ 10.9 µM) | ≥ 256 | ≥ 256 | 100 | 108
8 | CO/N=C(\C(=O)N[C@@H]1C(=O)N2C(C(=O)O)=C(COC(C)=O)CS[C@H]12)c1csc(N)n1 [CEFOTAXIME] |  |  | < 1 | 4 (≈ 8.78 µM) | ≤ 0.12 | ≤ 0.12 | 8 (≈ 17.6 µM) | < 1 | < 1
9 | CO/N=C(\C(=O)N[C@@H]1C(=O)N2C(C(=O)O)=C(COC(N)=O)CS[C@H]12)c1ccco1 [CEFUROXIME] |  |  |  | 32 (≈ 75.4 µM) | 1 (≈ 2.36 µM) | 1 (≈ 2.36 µM) | 32 (≈ 75.4 µM) |  | 
10 | CC1(C)C(C(=O)O)N2C(=O)C[C@H]2S1(=O)=O (single isomer, unassigned) [SULBACTAM] | 5000 |  |  |  |  |  |  |  | 
11 | CC1(C)S[C@@H]2[C@H](NC(=O)C(C(=O)O)c3ccccc3)C(=O)N2[C@H]1C(=O)O (some centres undefined) [CARBENICILLIN] |  |  | 78 | 64 (≈ 169 µM) | 1 (≈ 2.64 µM) | 128 (≈ 338 µM) | 128 (≈ 338 µM) | 146 | 15
12 | CC(C)(O/N=C(\C(=O)N[C@@H]1C(=O)N2C(C(=O)[O-])=C(C[n+]3ccccc3)CS[C@H]12)c1csc(N)n1)C(=O)O [CEFTAZIDIME] |  |  | < 1 | 32 (≈ 58.5 µM) | ≤ 0.12 | ≤ 0.12 | 32 (≈ 58.5 µM) | < 1 | < 1
13 | O=C(Cc1cccs1)N[C@@H]1C(=O)N2C(C(=O)[O-])=C(C[n+]3ccccc3)CS[C@H]12 |  |  | 21 |  |  |  |  | 15 | 154
14 | CO[C@@]1(NC(=O)Cc2cccs2)C(=O)N2C(C(=O)O)=C(COC(N)=O)CS[C@@H]21 [CEFOXITIN] |  |  |  | 8 (≈ 18.7 µM) | 2 (≈ 4.68 µM) | 2 (≈ 4.68 µM) | 8 (≈ 18.7 µM) |  | 
15 | C[C@]1(Cn2ccnn2)[C@H](C(=O)O)N2C(=O)C[C@H]2S1(=O)=O [TAZOBACTAM] | 80 |  |  |  |  |  |  |  | 
16 | CCN1CCN(C(=O)N[C@@H](C(=O)N[C@@H]2C(=O)N3[C@@H]2SC(C)(C)[C@@H]3C(=O)O)c2ccccc2)C(=O)C1=O [PIPERACILLIN] |  |  |  | 64 (≈ 124 µM) | 2 (≈ 3.86 µM) | 32 (≈ 61.8 µM) | 128 (≈ 247 µM) |  | 
17 | C[C@@H](O)[C@H]1C(=O)N2C(C(=O)O)=C(SCCNC=N)C[C@H]12 [IMIPENEM ANHYDROUS] |  |  |  |  | ≤ 0.12 | ≤ 0.12 |  |  | 
18 | CC(=O)OCC1=C(C(=O)O)N2C(=O)[C@@H](NC(=O)Cc3cccs3)[C@H]2SC1 [CEPHALOTHIN] |  |  | 3 | ≥ 256 | 2 (≈ 5.04 µM) | 8 (≈ 20.2 µM) | ≥ 256 | 6 | 27
